Activity calls are given as the source filed them.
Legend:
[1] = target: DNA dC->dU-editing enzyme APOBEC-3G (Homo sapiens, UniProt Q9HC16); format: functional;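 also: Dose-response counterscreen measuring inhibition of APOBEC3G DNA deaminase activity, run while confirming APOBEC3A inhibitors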
[2] = target: T1, Carboxy-terminal domain RNA polymerase II polypeptide A small phosphatase 1 (Homo sapiens, UniProt Q9GZU7); test: inhibitors of CTDSP1, concentration-response testing, biochemical assay, absorbance-based, actives from ultra-high-throughput screening (AID 540297); format: functional
T1 sequence (Q9GZU7 whole entry): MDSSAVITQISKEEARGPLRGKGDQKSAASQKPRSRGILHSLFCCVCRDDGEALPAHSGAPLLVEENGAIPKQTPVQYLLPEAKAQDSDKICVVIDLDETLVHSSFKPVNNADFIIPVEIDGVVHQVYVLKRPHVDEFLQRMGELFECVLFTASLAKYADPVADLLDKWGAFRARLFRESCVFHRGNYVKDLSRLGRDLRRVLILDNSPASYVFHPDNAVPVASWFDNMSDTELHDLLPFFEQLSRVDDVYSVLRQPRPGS

[3] = target: DNA dC->dU-editing enzyme APOBEC-3A (Homo sapiens, UniProt P31941); test: Dose Response confirmation of small molecule APOBEC3A DNA Deaminase Inhibitors via a fluorescence-based single-stranded DNA deaminase assay. [Related pubchem assays (depositor defined):AID493011, AID493024]; format: functional
[4] = Luminescence Cell-Based Dose Confirmation HTS to Identify Inhibitors of Platelet Dense Granule Release. [Related pubchem assays: 1663 (Primary HTS), 1678 (Summary of Project)]; format: functional
[5] = target: T2, Short transient receptor potential channel 4 (Mus musculus, UniProt Q9QUQ5); test: TRPC4 positive allosteric modulators, dose response, cell-based, HEK293 TRPC4/mu-opioid, Fluo-4 calcium, EC20 DAMGO (AID 434941); format: functional
T2 sequence (Q9QUQ5 whole entry): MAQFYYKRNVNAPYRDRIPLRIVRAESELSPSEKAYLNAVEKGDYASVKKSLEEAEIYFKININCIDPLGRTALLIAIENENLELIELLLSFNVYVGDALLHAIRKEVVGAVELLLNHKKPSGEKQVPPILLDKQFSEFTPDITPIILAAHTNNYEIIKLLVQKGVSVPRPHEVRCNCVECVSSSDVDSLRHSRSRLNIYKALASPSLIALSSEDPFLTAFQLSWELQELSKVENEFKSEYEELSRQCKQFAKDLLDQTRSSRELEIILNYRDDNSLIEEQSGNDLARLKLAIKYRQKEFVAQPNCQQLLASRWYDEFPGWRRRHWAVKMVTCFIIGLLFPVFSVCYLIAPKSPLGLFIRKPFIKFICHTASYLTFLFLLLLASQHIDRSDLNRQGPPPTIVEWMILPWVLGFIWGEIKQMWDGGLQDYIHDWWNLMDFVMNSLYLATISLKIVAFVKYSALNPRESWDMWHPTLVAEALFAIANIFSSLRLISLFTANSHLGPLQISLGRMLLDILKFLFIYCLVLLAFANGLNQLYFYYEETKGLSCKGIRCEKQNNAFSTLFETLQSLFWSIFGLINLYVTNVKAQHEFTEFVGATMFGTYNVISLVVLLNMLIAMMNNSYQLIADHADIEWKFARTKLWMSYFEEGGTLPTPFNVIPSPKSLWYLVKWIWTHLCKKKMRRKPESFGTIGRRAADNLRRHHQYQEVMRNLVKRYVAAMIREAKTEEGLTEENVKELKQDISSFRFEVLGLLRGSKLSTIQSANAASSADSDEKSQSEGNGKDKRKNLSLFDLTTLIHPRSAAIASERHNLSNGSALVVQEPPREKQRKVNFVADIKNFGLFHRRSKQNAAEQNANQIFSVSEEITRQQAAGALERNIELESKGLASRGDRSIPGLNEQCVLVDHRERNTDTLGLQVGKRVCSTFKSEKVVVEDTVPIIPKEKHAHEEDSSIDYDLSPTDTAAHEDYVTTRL

[6] = target: Luciferin 4-monooxygenase (Photinus pyralis, UniProt P08659); test: firefly luciferase enzyme inhibitors, dose response, biochemical, luminescence (AID 1891)
[7] = target: Peroxisome proliferator-activated receptor gamma/Nuclear receptor coactivator 1 (Homo sapiens, UniProt P37231); test: TR-FRET dose response biochemical High Throughput Screening assay for agonists of the steroid receptor coactivator 1 (SRC-1) recruitment by the peroxisome proliferator-activated receptor gamma (PPAR gamma): non-selective agonists. [Related pubchem assays (depositor defined):AID1300, AID1808, AID504735, AID631]; format: protein assay
[8] = target: Peroxisome proliferator-activated receptor gamma/Nuclear receptor coactivator 2 (Homo sapiens, UniProt P37231); test: TR-FRET dose response biochemical High Throughput Screening assay for agonists of the steroid receptor coactivator 2 (SRC-2) recruitment by the peroxisome proliferator-activated receptor gamma (PPAR gamma): non-selective agonists. [Related pubchem assays: 1297, 1032 ]; format: functional
[9] = target: Peroxisome proliferator-activated receptor gamma/Nuclear receptor coactivator 3 (Homo sapiens, UniProt P37231); test: TR-FRET dose response biochemical High Throughput Screening assay for agonists of the steroid receptor coactivator 3 (SRC-3) recruitment by the peroxisome proliferator-activated receptor gamma (PPAR gamma): non-selective agonists. [Related pubchem assays: 1301 (Confirmation screen.), 1048 (Primary screen.)]; format: functional
HEK293 [10] = test: NOD1 signaling inhibitors, primary screen, cell-based, luminescence, uHTS (AID 1578); format: functional; settings: Homo sapiens
HEK293 [11] = test: cells; format: functional, cell-based; settings: Homo sapiens
HEK293 [12] = test: NOD2 signaling inhibitors in MDP-stimulated cells, cell-based, uHTS, luminescence (AID 2001); format: functional; settings: Homo sapiens
HEK293 [13] = test: cells; format: functional, cell-based; settings: Homo sapiens; remark: listed apart in the source
HEK293 [14] = test: cells; settings: Homo sapiens
[15] = system: Streptococcus sp. 'group A'; test: growth inhibition of control SK(-) GAS strain, dose response, counter-screen for streptokinase expression inhibitor project, luminescence, kanamycin, BacTiterGlo, confirmation (AID 1900); format: functional, organism-based
Streptococcus = test: Group A Streptococcus viability loss, dose response, counter-screen for streptokinase expression inhibitor project, luminescence, BacTiterGlo (AID 1915); format: functional, organism-based;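 also: potency for reduction of bacterial viability or growth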
[16] = target: T3, Heat shock factor protein 1 (Mus musculus, UniProt P38532); test: HSF1 potentiators in luciferase reporter cells, confirmation, cell-based, NIH3T3, luminescence, dose retest (AID 435004); format: functional;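 also: stress induced by proteasome inhibitor MG132 added 30 min after compound; luciferase reporter driven by HSF1 response element in NIH3T3 cells; actives raise luminescence as potentiators of the MG132 stress response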
T3 sequence (P38532 whole entry): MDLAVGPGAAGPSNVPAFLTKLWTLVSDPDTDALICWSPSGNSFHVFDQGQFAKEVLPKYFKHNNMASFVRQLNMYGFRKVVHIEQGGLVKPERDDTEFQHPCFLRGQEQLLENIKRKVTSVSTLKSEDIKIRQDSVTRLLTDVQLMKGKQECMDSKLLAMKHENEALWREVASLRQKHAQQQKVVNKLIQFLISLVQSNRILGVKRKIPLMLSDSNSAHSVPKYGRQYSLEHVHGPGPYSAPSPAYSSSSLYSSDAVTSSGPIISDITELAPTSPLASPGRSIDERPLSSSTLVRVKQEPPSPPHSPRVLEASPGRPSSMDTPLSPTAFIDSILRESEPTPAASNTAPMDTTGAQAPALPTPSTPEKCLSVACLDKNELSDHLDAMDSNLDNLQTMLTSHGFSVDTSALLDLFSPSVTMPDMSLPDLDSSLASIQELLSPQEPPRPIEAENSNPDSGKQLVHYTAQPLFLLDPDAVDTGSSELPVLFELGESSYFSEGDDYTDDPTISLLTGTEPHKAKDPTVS

[17] = target: T4, Endoribonuclease toxin MazF (Escherichia coli K-12, UniProt P0AE70); test: MazF toxin RNase activators, dose response, biochemical, fluorescence, single-stranded RNA substrate, uHTS hits (AID 588481); format: functional
T4 sequence (P0AE70 whole entry): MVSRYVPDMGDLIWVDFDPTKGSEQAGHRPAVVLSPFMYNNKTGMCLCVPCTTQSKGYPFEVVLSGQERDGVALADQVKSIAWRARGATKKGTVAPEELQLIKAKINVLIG

SUMO-activating enzyme [18] = target: T5, SUMO-activating enzyme (Homo sapiens, UniProt Q9UBT2); test: inhibitors of in vitro SUMOylation cascade, primary screen, biochemical, HTRF, uHTS (AID 2006); format: protein-complex assay
[19] = target: T4, Endoribonuclease toxin MazF; test: fluorescent RNA oligo signal without MazF, dose response, counter-screen for MazEF activator project, biochemical, fluorescence, single-stranded RNase substrate (AID 588502); format: functional
INS1 = test: beta cell apoptosis inhibitors, cytokine rescue, dose response, luminescence, retest (AID 449756); format: functional, cell-based; settings: Rattus norvegicus;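 also: cell death triggered by IL-1 beta plus TNF-alpha plus IFN-gamma mixture; protective hits raise ATP signal compared with cytokine alone wells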
SUMO-activating enzyme [20] = target: T5, SUMO-activating enzyme; test: SUMOylation inhibitor hit validation, confirmation, SUMOylation inhibitor project, biochemical, AlphaScreen (AID 2018); format: functional
[21] = target: Alkaline phosphatase, placental type (Homo sapiens, UniProt P05187); test: PLAP enzyme inhibitors, confirmation, biochemical, luminescence (AID 1512); format: functional
[22] = Vero E6 cell cytotoxicity, dose response, cytotoxicity control for non-replicating M. tuberculosis project, secondary assay (AID 492998); format: functional, VeroE6; settings: Vero C1008
[23] = THP-1 cell cytotoxicity, dose response, cytotoxicity control for non-replicating M. tuberculosis project (AID 489025); format: functional
cells = format: functional
Streptokinase A = target: T6, Streptokinase A (Streptococcus pyogenes serotype M1, UniProt P10520); test: S. pyogenes streptokinase expression inhibitors, potency, dose response, plasminogen activation absorbance, OD405 (AID 1914); format: functional, Streptococcus pyogenes M1 GAS;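 also: secreted streptokinase activity via plasminogen activation per viability signal from cell pellet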
T6 sequence (P10520 whole entry): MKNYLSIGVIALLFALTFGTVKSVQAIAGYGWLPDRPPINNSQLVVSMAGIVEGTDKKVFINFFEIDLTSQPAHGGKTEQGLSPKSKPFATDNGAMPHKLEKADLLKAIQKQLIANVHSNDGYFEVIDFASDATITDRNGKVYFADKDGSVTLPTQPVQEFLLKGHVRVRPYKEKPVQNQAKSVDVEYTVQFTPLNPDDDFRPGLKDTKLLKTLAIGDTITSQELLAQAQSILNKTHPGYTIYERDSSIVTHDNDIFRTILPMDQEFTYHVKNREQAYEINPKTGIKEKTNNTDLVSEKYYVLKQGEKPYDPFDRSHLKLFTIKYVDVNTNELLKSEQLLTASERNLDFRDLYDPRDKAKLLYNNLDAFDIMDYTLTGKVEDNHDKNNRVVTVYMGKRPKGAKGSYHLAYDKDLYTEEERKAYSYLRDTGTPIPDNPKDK

[24] = HepG2 cell cytotoxicity, dose response, cytotoxicity control for non-replicating M. tuberculosis project (AID 489018); format: functional; settings: Mycobacterium tuberculosis
[25] = target: T2, Short transient receptor potential channel 4; test: mouse TRPC4 channel activators, dose response, cell-based, HEK293 TRPC4/mu-opioid, Fluo-4 calcium (AID 434937); format: functional
Vero = test: cells; format: functional; settings: Chlorocebus sabaeus

Peroxisome proliferator-activated receptor gamma/Nuclear receptor coactivator 2, sequence (P37231 whole entry): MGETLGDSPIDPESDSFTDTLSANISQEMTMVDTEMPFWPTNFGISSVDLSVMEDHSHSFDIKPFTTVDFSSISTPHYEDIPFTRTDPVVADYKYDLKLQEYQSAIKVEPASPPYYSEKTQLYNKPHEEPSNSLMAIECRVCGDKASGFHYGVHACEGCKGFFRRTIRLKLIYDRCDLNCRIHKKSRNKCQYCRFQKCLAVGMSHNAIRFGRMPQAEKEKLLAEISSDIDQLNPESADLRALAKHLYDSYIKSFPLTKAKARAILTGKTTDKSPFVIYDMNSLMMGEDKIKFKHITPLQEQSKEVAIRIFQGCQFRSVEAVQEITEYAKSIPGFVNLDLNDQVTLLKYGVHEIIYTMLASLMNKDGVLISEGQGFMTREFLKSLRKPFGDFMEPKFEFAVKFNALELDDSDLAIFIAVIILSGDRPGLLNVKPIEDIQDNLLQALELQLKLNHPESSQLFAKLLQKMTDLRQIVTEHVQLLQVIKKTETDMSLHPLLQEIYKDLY
Peroxisome proliferator-activated receptor gamma/Nuclear receptor coactivator 2, sequence (Q15596 whole entry, further chain): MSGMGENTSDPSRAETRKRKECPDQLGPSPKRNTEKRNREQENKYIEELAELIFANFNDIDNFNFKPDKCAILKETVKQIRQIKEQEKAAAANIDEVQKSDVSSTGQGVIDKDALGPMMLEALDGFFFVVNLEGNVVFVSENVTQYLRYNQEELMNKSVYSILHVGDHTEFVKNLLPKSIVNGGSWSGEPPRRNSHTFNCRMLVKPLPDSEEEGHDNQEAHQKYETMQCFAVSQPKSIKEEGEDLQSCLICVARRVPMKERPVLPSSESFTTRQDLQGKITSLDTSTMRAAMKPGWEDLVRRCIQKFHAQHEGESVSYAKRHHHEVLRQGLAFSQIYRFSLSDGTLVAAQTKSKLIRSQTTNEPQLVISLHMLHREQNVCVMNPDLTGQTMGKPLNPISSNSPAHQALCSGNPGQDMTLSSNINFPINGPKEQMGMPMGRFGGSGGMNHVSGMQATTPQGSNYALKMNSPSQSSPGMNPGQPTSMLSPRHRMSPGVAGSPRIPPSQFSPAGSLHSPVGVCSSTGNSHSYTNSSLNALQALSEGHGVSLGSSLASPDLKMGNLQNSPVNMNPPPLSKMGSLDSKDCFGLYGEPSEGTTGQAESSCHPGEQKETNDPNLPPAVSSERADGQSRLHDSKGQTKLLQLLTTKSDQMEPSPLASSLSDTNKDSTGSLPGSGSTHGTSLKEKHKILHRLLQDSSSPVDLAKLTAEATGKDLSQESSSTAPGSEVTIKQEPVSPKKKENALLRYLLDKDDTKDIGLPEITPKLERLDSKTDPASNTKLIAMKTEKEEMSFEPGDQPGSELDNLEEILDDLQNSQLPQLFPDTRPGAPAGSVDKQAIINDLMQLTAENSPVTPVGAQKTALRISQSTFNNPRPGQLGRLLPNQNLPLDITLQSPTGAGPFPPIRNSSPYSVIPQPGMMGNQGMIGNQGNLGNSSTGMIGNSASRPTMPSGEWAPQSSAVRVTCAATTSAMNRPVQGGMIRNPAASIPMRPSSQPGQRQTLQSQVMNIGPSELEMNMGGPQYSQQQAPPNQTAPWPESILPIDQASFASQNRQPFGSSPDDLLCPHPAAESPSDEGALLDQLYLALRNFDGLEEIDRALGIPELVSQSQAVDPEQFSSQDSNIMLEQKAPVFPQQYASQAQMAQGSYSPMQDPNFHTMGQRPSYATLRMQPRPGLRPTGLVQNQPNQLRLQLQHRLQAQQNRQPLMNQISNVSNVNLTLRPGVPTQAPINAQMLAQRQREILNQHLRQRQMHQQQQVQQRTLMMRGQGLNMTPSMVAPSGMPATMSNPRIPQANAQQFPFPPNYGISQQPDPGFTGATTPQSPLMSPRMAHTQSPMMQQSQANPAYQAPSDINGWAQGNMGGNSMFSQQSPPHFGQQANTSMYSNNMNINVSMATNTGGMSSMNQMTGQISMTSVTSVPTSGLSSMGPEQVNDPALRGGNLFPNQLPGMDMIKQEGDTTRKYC
Peroxisome proliferator-activated receptor gamma/Nuclear receptor coactivator 3, sequence (P37231 whole entry): as the sequence (P37231 whole entry) above
Peroxisome proliferator-activated receptor gamma/Nuclear receptor coactivator 3, sequence (Q9Y6Q9 whole entry, further chain): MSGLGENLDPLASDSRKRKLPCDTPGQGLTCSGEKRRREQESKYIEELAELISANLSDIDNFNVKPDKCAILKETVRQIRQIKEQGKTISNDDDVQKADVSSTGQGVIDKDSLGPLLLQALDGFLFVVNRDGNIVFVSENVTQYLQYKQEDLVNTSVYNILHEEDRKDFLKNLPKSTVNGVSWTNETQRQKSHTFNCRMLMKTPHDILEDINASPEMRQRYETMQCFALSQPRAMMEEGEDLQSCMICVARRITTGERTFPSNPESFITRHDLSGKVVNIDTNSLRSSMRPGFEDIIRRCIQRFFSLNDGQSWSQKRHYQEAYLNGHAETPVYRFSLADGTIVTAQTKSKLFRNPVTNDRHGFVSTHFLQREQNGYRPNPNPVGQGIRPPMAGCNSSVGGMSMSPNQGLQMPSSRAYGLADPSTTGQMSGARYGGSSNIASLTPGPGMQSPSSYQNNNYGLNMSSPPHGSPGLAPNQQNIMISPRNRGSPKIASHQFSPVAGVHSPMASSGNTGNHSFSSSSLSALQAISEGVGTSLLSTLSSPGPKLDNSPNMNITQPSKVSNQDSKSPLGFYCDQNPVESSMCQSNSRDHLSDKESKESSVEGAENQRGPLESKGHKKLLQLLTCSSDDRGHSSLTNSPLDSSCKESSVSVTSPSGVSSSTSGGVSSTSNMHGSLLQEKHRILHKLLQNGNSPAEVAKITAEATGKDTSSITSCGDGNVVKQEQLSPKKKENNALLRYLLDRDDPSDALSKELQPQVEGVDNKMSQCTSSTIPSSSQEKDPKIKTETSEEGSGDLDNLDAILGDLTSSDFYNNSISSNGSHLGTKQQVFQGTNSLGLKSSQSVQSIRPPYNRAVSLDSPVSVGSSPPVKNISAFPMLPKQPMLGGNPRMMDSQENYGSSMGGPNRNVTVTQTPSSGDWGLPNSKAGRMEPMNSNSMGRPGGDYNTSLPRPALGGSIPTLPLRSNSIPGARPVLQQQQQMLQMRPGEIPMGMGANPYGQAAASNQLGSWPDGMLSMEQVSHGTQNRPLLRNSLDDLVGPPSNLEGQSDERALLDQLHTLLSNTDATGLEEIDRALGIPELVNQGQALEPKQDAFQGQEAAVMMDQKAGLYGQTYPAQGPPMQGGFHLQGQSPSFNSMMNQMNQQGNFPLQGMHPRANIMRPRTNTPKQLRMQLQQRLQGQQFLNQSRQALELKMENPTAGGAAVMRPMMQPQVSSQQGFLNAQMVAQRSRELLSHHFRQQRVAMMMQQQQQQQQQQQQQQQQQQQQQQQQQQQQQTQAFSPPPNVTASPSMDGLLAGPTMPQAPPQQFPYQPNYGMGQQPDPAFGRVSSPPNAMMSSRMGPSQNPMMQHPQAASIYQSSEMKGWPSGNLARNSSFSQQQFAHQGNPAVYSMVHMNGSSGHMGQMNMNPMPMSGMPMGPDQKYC
DNA dC->dU-editing enzyme APOBEC-3G, sequence (Q9HC16 whole entry, the tested form may be a part): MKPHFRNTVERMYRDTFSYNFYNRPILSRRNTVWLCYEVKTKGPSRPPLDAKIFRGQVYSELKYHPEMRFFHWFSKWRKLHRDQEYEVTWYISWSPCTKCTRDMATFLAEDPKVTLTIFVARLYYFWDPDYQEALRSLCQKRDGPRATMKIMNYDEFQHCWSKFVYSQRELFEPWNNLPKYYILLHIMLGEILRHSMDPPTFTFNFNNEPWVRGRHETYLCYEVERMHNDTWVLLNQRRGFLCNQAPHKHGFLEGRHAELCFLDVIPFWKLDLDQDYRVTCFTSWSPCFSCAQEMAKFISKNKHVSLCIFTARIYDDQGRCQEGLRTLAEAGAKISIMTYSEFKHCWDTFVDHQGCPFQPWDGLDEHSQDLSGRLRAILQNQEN
DNA dC->dU-editing enzyme APOBEC-3A, sequence (P31941 whole entry): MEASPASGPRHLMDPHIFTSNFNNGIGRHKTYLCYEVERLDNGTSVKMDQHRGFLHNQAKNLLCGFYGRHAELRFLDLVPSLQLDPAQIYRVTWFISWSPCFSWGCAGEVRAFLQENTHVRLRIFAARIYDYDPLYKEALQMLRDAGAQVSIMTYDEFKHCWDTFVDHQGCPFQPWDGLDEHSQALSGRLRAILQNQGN
Alkaline phosphatase, placental type, sequence (P05187 whole entry): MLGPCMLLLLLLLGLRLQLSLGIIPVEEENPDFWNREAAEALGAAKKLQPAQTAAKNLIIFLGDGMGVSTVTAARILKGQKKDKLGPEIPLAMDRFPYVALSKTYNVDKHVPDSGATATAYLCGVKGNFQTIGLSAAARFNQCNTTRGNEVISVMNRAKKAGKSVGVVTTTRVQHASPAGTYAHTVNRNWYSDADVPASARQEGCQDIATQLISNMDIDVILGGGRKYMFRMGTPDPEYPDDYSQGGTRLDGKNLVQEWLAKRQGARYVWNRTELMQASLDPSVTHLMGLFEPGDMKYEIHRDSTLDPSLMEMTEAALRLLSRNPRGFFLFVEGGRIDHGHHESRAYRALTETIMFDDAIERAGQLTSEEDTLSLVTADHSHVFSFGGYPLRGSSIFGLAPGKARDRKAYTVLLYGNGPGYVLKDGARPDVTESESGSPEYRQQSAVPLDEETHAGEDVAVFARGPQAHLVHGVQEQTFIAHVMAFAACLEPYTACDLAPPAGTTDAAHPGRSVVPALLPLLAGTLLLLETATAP

O=C(N=C1NCCS1)C1CCN(S(=O)(=O)c2cc([N+](=O)[O-])ccc2Cl)CC1
IC50 [1]: 52.5 µM (active)
IC50 [2]: 3.39 µM (active)
IC50 [3]: 22 µM (active)

C=CCNC1=N[C@@H](c2ccccc2)C(C(=O)OC)=C(C)N1CCOC
IC50 [1]: 6.15 µM (active)
IC50 [3]: 4.03 µM (active)

CN(C)CC1CCCCC1OC(=O)Cc1ccc(Cl)c([N+](=O)[O-])c1 (stereo unspecified)
IC50 [1]: 4.69 µM (active)
IC50 [3]: 2.81 µM (active)

C1CCN(c2nc(N3CCCC3)nc(N3CCNCC3)n2)C1
EC50 [4]: > 112 µM (not active)
EC50 [5]: 2.66 µM (active)
EC50 [6]: > 112 µM (not active)

O=C1c2ccccc2-c2cccc(NS(=O)(=O)c3ccc(C(F)(F)F)cc3)c21
EC50 [7]: > 79.4 µM (inactive)
EC50 [8]: > 79.4 µM (not active)
EC50 [9]: > 79.4 µM (not active)

CNc1nc(N2CCc3ccccc32)ncc1F
EC50 [5]: 0.75 µM (active)

N#Cc1c(O)nc(SCc2cccc(C(F)(F)F)c2)nc1-c1ccccc1
EC50 (HEK293 [10]): 6.55 µM (active)
IC50 (HEK293 [11]): > 20 µM (inactive)
IC50 (HEK293 [12]): 13.2 µM (inactive)
IC50 (HEK293 [13]): 19 µM (active)
IC50 (HEK293 [14]): > 20 µM (inactive)
EC50 [15]: 2.63 µM (active)
EC50 (Streptococcus): 10.3 µM (active)

O=C1C([N-]S(=O)(=O)c2cccs2)=C([n+]2cccc(Cc3ccccc3)c2)C(=O)c2ccccc21
EC50 [16]: > 260 µM (inactive)
EC50 [17]: > 99 µM (inactive)
IC50 (SUMO-activating enzyme [18]): 12.9 µM (active)
EC50 [19]: 36.5 µM (inactive)
AC50 (INS1): 2.69 µM (active)
EC50 [15]: 1.53 µM (active)
IC50 (SUMO-activating enzyme [20]): 9.51 µM (active)
EC50 (Streptococcus): 1.6 µM (active)

CCN(CC(=O)Nc1cccc(F)c1)Cc1nc(O)c2ccccc2n1
IC50 [21]: > 100 µM (inactive)

CN(C)CCNc1ccc(Cl)cc1[N+](=O)[O-]
EC50 [5]: 0.01 µM (active)

CCn1c(=O)cc(SCC(=O)Nc2ccc3c(c2)OCO3)c2ccccc21
EC50 [7]: 52.9 µM (inactive)
EC50 [8]: 35.4 µM (not active)
EC50 [9]: > 79.4 µM (not active)

COCCNC(=O)CSc1cc(=O)n(C)c2cc(Cl)ccc12
EC50 [7]: > 79.4 µM (inactive)
EC50 [8]: > 79.4 µM (not active)
EC50 [9]: > 79.4 µM (not active)

COc1ccccc1/C=N\Nc1cc(C)nc(-n2nc(C)cc2C)n1
CC50 [22]: 7.06 µM (active)
CC50 [23]: 5.71 µM (active)
IC50 (cells): < 0.1 µM (active)
EC50 (Streptokinase A): > 150 µM (not active)
AC50 (INS1): 2.92 µM (active)
CC50 [24]: 18.3 µM (active)
EC50 [15]: 7.45 µM (active)
EC50 (Streptococcus): 16.1 µM (active)

Cc1nc(N/C(N)=N/C(=O)NC2CCCCC2)nc2ccccc12
CC50 [22]: 13.3 µM (active)
CC50 [23]: 16.9 µM (active)
EC50 [25]: 0.0667 µM (active)
CC50 (Vero): 19.2 µM (active)
IC50 (cells): 3.25 µM (active)
CC50 [24]: 17.7 µM (active)

Source: ChEMBL document CHEMBL1201862, “PubChem BioAssay data set” (2004)
